Laboratory results reported in publication PMC7004151, “Synthesis and Structure‐Activity Relationships of N‐(4‐Benzamidino)‐Oxazolidinones: Potent and Selective Inhibitors of Kallikrein‐Related Peptidase 6” (Chemmedchem, 2019).
Where two headings read alike, the source gives them in different places. One block for each compound: values may come before it.

Experiments:
KLK6 [1] = conditions: cited from earlier work
KLK7 = target: T1, KLK7 (Homo sapiens, UniProt P49862); assay: KLK7 enzyme inhibition assay; type: biochemical; conditions: read-out: KLK7 pIC50 (converted)
T1 construct: purchased 2B scientific
T1 sequence (P49862 30-253, species assumed): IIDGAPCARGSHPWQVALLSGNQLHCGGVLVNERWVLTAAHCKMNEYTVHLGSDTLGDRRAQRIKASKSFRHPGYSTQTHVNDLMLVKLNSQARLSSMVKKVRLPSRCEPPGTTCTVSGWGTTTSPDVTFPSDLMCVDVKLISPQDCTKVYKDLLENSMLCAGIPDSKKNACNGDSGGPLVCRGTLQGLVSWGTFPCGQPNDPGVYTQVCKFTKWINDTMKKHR
Protocol: (§1) Enzyme inhibition assays: All chemicals were purchased from Sigma Aldrich (Gillingham, UK) unless otherwise stated. All experiments were conducted in 384 well black, low volume microplates (Greiner 784076) with a final volume of 20 μL and compounds were dispensed into assay plates using an ECHO 550 acoustic dispenser (Labcyte). KLK6 (5 nM) (prepared as in ref. 21) was incubated with test compounds for 30 min at room temperature in assay buffer (50 mM Tris, pH 7.5, 150 mM NaCl, 1 mM EDTA, 0.05 % tween 20, 0.1 % bovine serum albumin (BSA), 1 mM dithiothreitol (DTT)) before the reaction was started by addition of 20 μM Boc‐Phe‐Ser‐Arg‐AMC substrate (Bachem). Fluorescence intensity was read at ex/em 355/460 following incubation for 2 h in the dark at room temperature.
(§2) Assays using KLK7 and KLK8 (2B scientific) were conducted in the same manner as for KLK6 with the following exceptions. Both KLK7 and KLK8 required activation before assaying. KLK7 was combined with an equal volume of 20 μg/ml thermolysin (R&D systems) in activation buffer (50 mM Tris, pH 7.5, 10 mM CaCl2, 150 mM NaCl and 0.05 % Brij‐L23) and incubated at 37 °C for 2 h, the reaction was stopped with the addition of 100 mM EDTA in stop solution (50 mM Tris, 150 mM NaCl, pH 8.5). KLK8 was combined with an equal volume of 0.4 mU/mL lysyl endopeptidase (Alpha laboratories) in activation buffer (50 mM Tris, pH 8.0) and incubated at 37 °C for 30 min. Activated KLK7 (40 nM) and KLK8 (25 nM) were assayed with 40 μM Mca‐RPKPVE‐Nval‐WRK(Dnp)‐NH2 fluorogenic MMP substrate (R&D systems) and 25 μM Boc‐V‐P‐R‐AMC substrate (R&D systems), respectively.

KLK4 = KLK4 (Homo sapiens, UniProt Q9Y5K2); assay: KLK4 inhibition (selectivity); type: biochemical; conditions: read-out: KLK4 pIC50 (converted)
Sequence of KLK4 (Q9Y5K2 31-254, species assumed): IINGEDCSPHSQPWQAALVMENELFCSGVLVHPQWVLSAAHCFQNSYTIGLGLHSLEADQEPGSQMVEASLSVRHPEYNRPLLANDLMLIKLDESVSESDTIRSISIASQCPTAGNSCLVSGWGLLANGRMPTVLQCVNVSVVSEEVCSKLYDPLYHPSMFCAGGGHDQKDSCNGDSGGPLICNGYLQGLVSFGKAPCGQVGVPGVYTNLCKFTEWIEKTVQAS
Text: Table 3 Activity of synthesized inhibitors against KLK6 and related proteases. | column: KLK4^a

KLK6 [2] = target: T2, KLK6 (Homo sapiens, UniProt Q92876); assay: SPR binding assay (Biacore T200, KLK6 immobilized on CM5 chip); conditions: read-out: KLK6 pKD (converted)
Protocol: High Throughput Screen: The European Lead Factory library of ∼350,000 compounds was used for high throughput screening at the Pivot Park Screening Center facilities in Oss, The Netherlands. HighRes Biosolutions robotic infrastructure using Cellario software was programmed to perform screening of 281 1536‐well plates. Using the primary KLK6 fluorescent intensity (FI) assay (see below), 7794 compounds having a Z‐score≤‐4 were selected for further follow‐up. An additional set of compounds was added based on Bayesian modeling to include potential false negatives in the hit confirmation. […] Upon testing of these compounds using SPR and LC‐MS, a qualified hit list (QHL) was registered containing 50 compounds. For SPR, Biacore T200 was used and KLK6 was immobilized onto a CM5 chip. 226 test compounds were screened at 4 concentrations: 20, 4, 0.8 and 0.16 μM in running buffer: 50 mM Tris‐HCl, 1 mM EDTA pH 7.5, 150 mM NaCl, 0.05 % Tween 20, 3 % DMSO at 25 °C. Control injections of 5 μM 1 were used throughout the screen to ensure that KLK6 was stable and had not been blocked by potential irreversible binders/denaturants. An 8 point 1 in 3 dilution series of 1 (50 μM to 0.02 μM) was also applied at the beginning and end of each screening day.

KLK6 [3] = target: T2, KLK6; assay: KLK6 enzymatic inhibition assay (fluorogenic Boc-Phe-Ser-Arg-AMC substrate); type: biochemical; parameters: made in house; conditions: for IC50: read-out: KLK6 pIC50 (converted)
Protocol: Using our previously published KLK6 assay format,21 we performed a HTS with the European Lead Factory (ELF),22 and tested ∼350,000 substances at 10 μM for their ability to reduce KLK6‐catalyzed hydrolysis of the fluorogenic Boc‐Phe‐Ser‐Arg‐AMC peptide.
High Throughput Screen: The European Lead Factory library of ∼350,000 compounds was used for high throughput screening at the Pivot Park Screening Center facilities in Oss, The Netherlands. […] For SPR, Biacore T200 was used and KLK6 was immobilized onto a CM5 chip. […] An 8 point 1 in 3 dilution series of 1 (50 μM to 0.02 μM) was also applied at the beginning and end of each screening day.
Enzyme inhibition assays: All chemicals were purchased from Sigma Aldrich (Gillingham, UK) unless otherwise stated.

Human thrombin = target: T3, Human thrombin (Homo sapiens, UniProt P00734); assay: Thrombin enzyme inhibition assay; type: biochemical; conditions: read-out: Thrombin pIC50 (converted)
T3 construct: Human thrombin was purchased from Biopur; purchased Biopur
Protocol: (§3) Human thrombin was purchased from Biopur. Human trypsin was purchased from Polymun Scientific. Human Factor Xa was purchased from Enzo Life Sciences. Thrombin (20 nM), trypsin (0.000015 %) or Factor Xa (10 nM) were assayed in a similar manner to the KLKs but were incubated with compound for 20 min at room temperature in assay buffer (50 mM Tris HCl, pH 7.6, 100 mM NaCl, 1 mg/ml CHAPS, 0.05 % bovine serum albumin (BSA), 1 mM dithiothreitol (DTT)) before the addition of 5 μM, 2.5 μM or 1.5 μM Rhodamine 110 substrate (Cambridge bioscience ltd) respectively. Fluorescence intensity was then read at ex/em 485/535 following incubation for 1 h at room temperature (thrombin and factor Xa) or 20 min (trypsin).

Human Factor Xa = target: T4, Human Factor Xa (Homo sapiens, UniProt P00742); assay: Factor Xa enzyme inhibition assay; type: biochemical; conditions: read-out: Factor Xa pIC50 (converted)
T4 construct: Human Factor Xa was purchased from Enzo Life Sciences; purchased Enzo Life Sciences
T4 sequence (P00742 235-488 limits assumed): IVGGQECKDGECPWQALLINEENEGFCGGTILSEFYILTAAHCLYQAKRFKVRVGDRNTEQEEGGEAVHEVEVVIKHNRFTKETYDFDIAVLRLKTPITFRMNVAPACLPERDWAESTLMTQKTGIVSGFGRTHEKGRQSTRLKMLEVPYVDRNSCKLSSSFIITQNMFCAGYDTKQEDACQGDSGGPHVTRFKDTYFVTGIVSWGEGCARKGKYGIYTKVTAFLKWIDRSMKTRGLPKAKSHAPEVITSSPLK
T4 sequence (P00742 41-179 partner limits assumed): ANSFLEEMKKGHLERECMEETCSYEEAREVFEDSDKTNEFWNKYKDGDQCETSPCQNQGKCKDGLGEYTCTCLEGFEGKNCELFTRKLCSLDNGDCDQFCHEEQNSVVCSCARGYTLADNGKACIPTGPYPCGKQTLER
Protocol: as §3

Human trypsin = target: T5, Human trypsin (Homo sapiens, UniProt P07477); assay: Trypsin enzyme inhibition assay; type: biochemical; conditions: read-out: Trypsin pIC50 (converted)
T5 construct: purchased Polymun Scientific
Protocol: Human thrombin was purchased from Biopur. Human trypsin was purchased from Polymun Scientific. Human Factor Xa was purchased from Enzo Life Sciences. […] Fluorescence intensity was then read at ex/em 485/535 following incubation for 1 h at room temperature (thrombin and factor Xa) or 20 min (trypsin).

KLK8 = target: T6, KLK8 (Homo sapiens, UniProt O60259); assay: KLK8 enzyme inhibition assay; type: biochemical; conditions: read-out: KLK8 pIC50 (converted)
T6 construct: purchased 2B scientific
T6 sequence (O60259 33-260): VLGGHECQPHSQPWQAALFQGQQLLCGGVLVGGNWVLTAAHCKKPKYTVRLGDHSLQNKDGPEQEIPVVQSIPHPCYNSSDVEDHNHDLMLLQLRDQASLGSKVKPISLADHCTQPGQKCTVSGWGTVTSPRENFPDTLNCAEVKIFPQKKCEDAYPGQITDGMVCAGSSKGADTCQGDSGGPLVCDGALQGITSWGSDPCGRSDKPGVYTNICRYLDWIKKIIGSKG
Protocol: as §1, §2

HCT116 cells [4] = assay: HCT116 Matrigel invasion assay; type: cell-based; conditions: after 24 h; 9 at multiple concentrations; 32 at 50 nM and 500 nM
Protocol: Figure 5 HCT116 cells were treated with 9 or 32 at the indicated concentrations and plated on Matrigel®‐coated filters. The upper chamber contained serum‐free medium, while the lower chamber contained 10 % fetal bovine serum. After 24 h, the number of invading cells was measured optically. (A) This figure is one representative example of four biological replicates, each with similar outcomes. Error bars are SEM. Technical replicates: DMSO and 9 at 5 nM (n=3); 9 at 50 and 500 nM and 32 at all concentrations (n=6). Statistical significance was calculated using an unpaired two‐tailed t‐test. n.s=p≥0.05; **=p<0.01; ***=p<0.001. (B) Representative images (Scale bar, […]) of stained invaded cells outside of the inserts 24 h hours after treatment with 9, 32, or DMSO solvent control at the indicated concentrations. Phase contrast images were taken with EVOS FL Cell imagine system FL Auto microscope (Bio‐Rad).
Invasion assay: The HCT116 colorectal adenocarcinoma cell line (ATCC® CCL‐247™) was maintained in Dulbecco's Modified Eagle Medium (DMEM) with […] glucose, L‐glutamine w/o sodium pyruvate, supplemented with 10 % FBS and 1 % penicillin/streptomycin. […] The samples were transferred to a new 96 well plate and read at 560 nm on a Synergy 2 Multi‐Detection Microplate Reader (Bio‐Tek Instruments, Inc., Winooski, VT).

HCT116 cells [5] = assay: HCT116 cell growth and viability; type: cell-based; conditions: at the tested concentrations (data not shown)
Text: We have previously shown that knockdown of KLK6 reduces migration and invasion of HCT116 cells in vitro.13 In order to test whether this effect could be recapitulated with small molecule KLK6 inhibitors, we measured the ability of 32 to reduce invasion of HCT116 cells. […] HCT116 cell growth and viability was not altered upon treatment with compounds 9 and 32 at the tested concentrations (data not shown).

[6] = HTS library sample, primary dose-response enzymatic inhibition assay
[7] = resynthesized stereoisomers, enzymatic inhibition assay (Table 2)
[8] = synthesized inhibitors (Table 3), 8.6 = assay limit

Compound: NCc1ccc(NC(=O)c2c([O-])ccc[n+]2Cc2nccn2Cc2ccccc2)cc1 [Compound 1]
- IC50 (KLK6 [1]; published KLK6 inhibitors ref 18): 1.8 µM

Compound: O=C(Oc1cc(Cl)ccc1Cl)c1cc2cc(Cl)ccc2oc1=O [Compound 4]
- kinact/Ki (KLK6 [1]; covalent coumarin-based suicide inhibitor ref 20): 131 ± 13 M⁻¹ s⁻¹

Compound: COc1cccc([C@H](C)NC(=O)[C@H]2CN(c3ccc(C(=N)N)cc3)C(=O)O2)c1 [Compound 5, (5R)‐3‐(4‐carbamimidoylphenyl)‐N‐[(S)‐1‐(3‐methoxyphenyl)ethyl]‐2‐oxooxazolidine‐5‐carboxamide]
- IC50 (KLK7): > 20 µM
- IC50 (KLK4): 7.94 µM
- Kd (KLK6 [2]): 0.1 µM
- IC50 (KLK6 [3]; [6]): 0.0631 µM
- LipE (KLK6 [3]; LipE=pIC50 – logP (KLK6 pIC50, ALogP)): 4.79
- IC50 (KLK6 [3]; [7]): 0.251 µM
- IC50 (KLK6 [3]; [8]): 0.251 µM
- IC50 (Human thrombin): > 20 µM
- IC50 (Human Factor Xa): > 20 µM
- IC50 (Human trypsin): 5.01 µM
- IC50 (KLK8): 10 µM

Compound: N=C(N)c1ccc(N2CC(CC(=O)NCc3ccccc3C(F)(F)F)OC2=O)cc1 (centres unmarked) [Compound 6]
- Kd (KLK6 [2]): 12.6 µM
- IC50 (KLK6 [3]; [6]): 10 µM

Compound: CCOC(=O)C[S+]([O-])CC1CN(c2ccc(C(=N)N)cc2)C(=O)O1 (centres unmarked) [Compound 7]
- Kd (KLK6 [2]): 20 µM
- IC50 (KLK6 [3]; [6]): 1.58 µM

Now from value to compound, other results behind:

- Kd (KLK6 [2]): 7.94 µM
- IC50 (KLK6 [3]; [6]): 7.94 µM
Compound: CCN(CC)C(=O)c1cccc(OCC2CN(c3ccc(C(=N)N)cc3)C(=O)O2)c1 (centres unmarked) [Compound 8]

- IC50 (KLK6 [3]; [7]): > 20 µM
Compound: COc1cccc([C@@H](C)NC(=O)[C@@H]2CN(c3ccc(C(=N)N)cc3)C(=O)O2)c1 [Compound 9]
- invasion of HCT116 cells (HCT116 cells [4]): no significant effect
- HCT116 cell growth and viability (HCT116 cells [5]): not altered

- IC50 (KLK7): > 20 µM
- IC50 (KLK4): 1.26 µM
- IC50 (KLK6 [3]; [8]): 0.794 µM
- IC50 (Human thrombin): > 20 µM
- IC50 (Human Factor Xa): > 20 µM
- IC50 (Human trypsin): 5.01 µM
- IC50 (KLK8): 7.94 µM
Compound: COc1cccc([C@H](C)NC(=O)[C@@H]2CCN(c3ccc(C(=N)N)cc3)C2)c1 [Compound 47, (3R)‐1‐(4‐carbamimidoylphenyl)‐N‐[(1S)‐1‐(3‐methoxyphenyl)ethyl]pyrrolidine‐3‐carboxamide]
